Where two headings read alike, the source gives them in different places.
Key:
IMR90-4-derived BMECs = assay: Permeability coefficients (Pe) of radiolabeled small molecules across the IMR90-4-derived BMEC/astrocyte co-culture model
Protocol: For co-culture experiments, primary astrocytes were isolated as previously described^37. Briefly, cortices were isolated from P6 neonatal Sprague Dawley rats (Harlan) and minced in Hank's Balanced Salt Solution (HBSS; Sigma). […] After trituration and filtration, cells were cultured on collagen-I-coated flasks (100 μg/mL; Sigma) in DMEM containing 10% qualified heat-inactivated fetal bovine serum (FBS; Invitrogen), 10% heat-inactivated horse serum (Sigma), 2 mM L-glutamine, and 1% antibiotic-antimycotic (Invitrogen). Human embryonic kidney 293 cells (HEK cells; ATCC) were cultured in DMEM supplemented with 10% FBS, 1 mM sodium pyruvate (Sigma), 2 g/L sodium bicarbonate (Fisher Scientific), 30 mM HEPES (Sigma), and 1% antibiotic-antimycotic, and used as a non-neural cell control. Co-culture of hPSC-derived BMECs was initiated with primary rat astrocytes or HEK cells in either EC medium (called 1% PDS medium in Table 2) or 70:30 (v/v) DMEM/F12 (Sigma/Invitrogen) supplemented with 1% antibiotic-antimycotic, 2% B27 (Invitrogen), and 10% FBS^37 (called 10% FBS medium in Table 2). Trans-endothelial electrical resistance (TEER) measurements were performed using an EVOM voltohmmeter (World Precision Instruments) at the start of co-culture and every 24 h thereafter. The resistance value (Ω×cm^2) of an empty filter coated with collagen/fibronectin was subtracted from each measurement. Permeability coefficients (Pe) were evaluated after 24 h of co-culture as previously described^34. For sodium fluorescein Pe measurements, 10% FBS medium containing 1 μM sodium fluorescein solution was added to the apical chamber of the […]™ filter. 200 μL aliquots were extracted from the basolateral chamber (which contains 1.5 mL of medium) every 30 min and replaced by fresh medium. Using a fluorescent plate reader and calibration curve, the flux of fluorescein to the bottom chamber and permeability coefficients were calculated as described by Calabria et al^34. To determine the Pe of radiolabeled ligands, compounds were diluted to 0.4 μCi in transport buffer (distilled water with 0.12 M NaCl, 25 mM NaHCO3, 3 mM KCl, 2 mM MgSO4, 2 mM CaCl2, 0.4 mM K2HPO4, 1 mM HEPES, and 0.1% bovine serum albumin [BSA; Sigma]) and 0.5 mL were added to the upper chamber. 200 μL aliquots were extracted from the basolateral chamber every 15 min and replaced by fresh buffer. […] [^3H]-vincristine was purchased from American Radiolabeled Chemicals, while all other radiolabeled compounds were acquired from PerkinElmer. All compound incubations were conducted at 37° C., and the radioactive permeability experiments were carried out on a rotator. Triplicate filters were used for all permeability studies and the values listed throughout the Results section are representative of a minimum of two biological replicates.

[1] = cited from earlier work
[2] = test system: BBB influx and efflux transporters (GLUT-1, MDR1, BCRP, MRP family, organic cation transporters); details: cited from earlier work
[3] = Sodium fluorescein permeability, IMR90-4-derived BMEC/astrocyte co-culture; assay type: in vitro ADME; details: human; IMR90-4-derived BMECs, astrocyte co-culture, 1 μM sodium fluorescein; read-out: fluorescein permeability coefficient (Pe) (converted)
Protocol: (§1) Permeability coefficients were evaluated after 24 hours of co-culture as previously described. […] Using a fluorescent plate reader and calibration curve, the rate of fluorescene influx to the bottom chamber was calculated, and final values for permeability coefficients were then calculated according to Calabria et al.^34.

[4] = Sodium fluorescein permeability, DF19-9-11T-derived BMECs; assay type: in vitro ADME; details: human, 1 μM sodium fluorescein, read-out: fluorescein permeability coefficient (Pe), average (converted)
Protocol: as §1

hCMEC/D3 line = hCMEC/D3 line (ref. 9); cited from earlier work
primary human BMECs = primary human BMECs (ref. 56); cited from earlier work
[5] = test system: p-glycoprotein, BCRP and MRP family efflux transporters; assay: Apical-to-basolateral transport of doxorubicin with efflux inhibitors, IMR90-4-derived BMEC/astrocyte model; assay type: in vitro ADME, human; details: astrocyte co-culture; 60 min; normalized to no inhibitor
[6] = test system: p-glycoprotein, BCRP, and the MRP family; assay: Doxorubicin accumulation assay with efflux inhibitors in monocultured IMR90-4-derived BMECs; assay type: in vitro ADME, human; details: monoculture; doxorubicin 0.25 μCi, 1 h; 5 μM cyclosporin A, 1 μM Ko143 or 10 μM MK 571
Wnt/β-catenin pathway = assay: Quantitative RT-PCR of genes elevated during BMEC specification under Wnt inhibition; assay type: cell-based, human; details: IMR90-4, 7 days UM; SFRP2 250 then 750 ng/mL, or 10 μM XAV-939 from day 2, versus untreated or DMSO
Protocol: Cells were differentiated as previously described. […] For RNA collection, cells were washed once with PBS and dissociated with trypsin or accutase. Total RNA was extracted using an RNeasy Mini Kit (Qiagen) according to the manufacturer's instructions. cDNA was generated from 1 μg of RNA using Omniscript reverse transcriptase (Qiagen) and oligo-dT primers (Invitrogen). Quantitative PCR (qPCR) was then performed using 1 μL of cDNA and iQ SYBR Green Supermix (Bio-Rad) on an iCycler (Bio-Rad). RT-PCR was also performed using GoTaq Green Master Mix (Promega). Primer sequences are supplied in Table 8. Relative expression was quantified using the comparative cycle threshold (CT) method, normalizing to glyceraldehyde-3-phosphate dehydrogenase (GAPDH) expression. Fold difference was calculated as x^−ΔΔCT, where x refers to primer efficiency calculated according LinRegPCR version 12.3^59. Transcript amplification was analyzed by 2% agarose gel electrophoresis of the qPCR or RT-PCR products.

[7] = test system: differentiating IMR90-4 iPSC cultures (BMEC specification); assay: Flow cytometry of PECAM-1/GLUT-1 expression in differentiating IMR90-4 cultures under Wnt inhibition; assay type: cell-based, human
Protocol: Cells were harvested via Accutase (Invitrogen) incubation for 2-3 min, fixed in 100% ice-cold methanol for 20 min, and blocked with 40% PBSG for 20 min at room temperature. Primary antibody labeling (Table 5) was performed in 10% PBSG for 1 h at room temperature. IgG controls were used at the same concentration. After a wash with 5% FBS in PBS, secondary antibodies (goat anti-rabbit Alexa 488 and goat anti-mouse Alexa 647; 1:200) in 10% PBSG were added to each sample for 30 min at room temperature. After two washes with 5% FBS in PBS, the samples were analyzed on a FACScaliber flow cytometer. PECAM-1^+ events were quantified using a PECAM-1/forward scatter dot plot referenced to a rabbit IgG control. GLUT-1^+ events were quantified using a GLUT-1/forward scatter dot plot referenced to a 4D UM culture that lacked BMECs. Events that were found in both of these positive gates were classified as PECAM-1^+/GLUT-1^+ cells. βIII tubulin and nestin expression were quantified against rabbit and mouse IgG controls, respectively. Data are presented as two-dimensional dot plots with color codes to indicate events within each gate.

[8] = test system: differentiating IMR90-4 cultures; assay: Claudin-5 and occludin localization and western blots in differentiating cultures under XAV-939; assay type: cell-based, human; details: data not shown
Protocol: Cells were washed once with PBS and fixed in either 2% paraformaldehyde or 100% ice-cold methanol for 15 min. The cells were then blocked with 40% goat serum in PBS (40% PBSG). If probing for an intracellular antigen, 0.1% TX-100 was present in the 40% PBSG. The cells were then incubated in 40% PBSG containing primary antibody (see Table 5 for list) for one h at room temperature. After three washes in PBS, cells were incubated in 40% PBSG containing goat anti-rabbit Texas Red (1:500; Invitrogen) or goat anti-mouse Alexa 488 (1:500; Invitrogen). Cell nuclei were labeled with 300 nM 4′,6-Diamidino-2-pheny-lindoldihydrochloride (DAPI) for 10 min. Cells were washed three times in PBS and visualized. In situ hybridization for detection of WNT7A and WNT7B transcripts was conducted similar to the method described by Planell-Saguer et al^58. Briefly, cells were washed once with PBS and fixed in 2% paraformaldehyde for 10 min, followed by permeabilization in PBS containing 0.1% TX-100 for 5 min. Pre-hybridization was performed with a water-based solution containing 3% BSA and 4× saline-sodium citrate buffer (SSC; Fisher), followed by a 1 h hybridization in 4×SSC and 10% dextran sulfate (Fisher) at room temperature. Digoxigenin-labeled locked nucleic acid probes were purchased from Exiqon (sequences found in Table 6). […]

[9] = efflux transporter substrates (Table 6)
[10] = IMR90-4-derived BMEC/astrocyte co-culture model
[11] = IMR90-4-derived BMECs co-cultured with rat astrocytes, radiolabeled compound, apical to basolateral over 1 h, 37° C., mean ± SD of biological replicates

Molecule: CC[C@]1(O)C[C@H]2CN(CCc3c([nH]c4ccccc34)[C@@](C(=O)OC)(c3cc4c(cc3OC)N(C=O)[C@H]3[C@@](O)(C(=O)OC)[C@H](OC(C)=O)[C@]5(CC)C=CCN6CC[C@]43[C@@H]65)C2)C1 [Vincristine]
- Average Pe (IMR90-4-derived BMECs; human, 1 h): 0.06 ± 0.02 10^−3 cm/min
- Pe value (IMR90-4-derived BMECs; human, 1 h): 1.03 ×10⁻⁶ cm/s
- Octanol/water partition coefficient (logD) [1]: 2.8

Molecule: COc1cccc2c1C(=O)c1c(O)c3c(c(O)c1C2=O)C[C@@](O)(C(=O)CO)C[C@@H]3O[C@H]1C[C@H](N)[C@H](O)[C@H](C)O1 [Doxorubicin]
- Transporter recognition [2, 9]: MDR1, BCRP, MRP1, MRP2

Molecule: COc1cc2nc(N3CCN(C(=O)c4ccco4)CC3)nc(N)c2cc1OC [Prazosin]
- Pe value (IMR90-4-derived BMECs; [10]): 4.77 ×10⁻⁶ cm/s
- Average Pe (IMR90-4-derived BMECs; [11]): 0.29 ± 0.04 10^−3 cm/min
- Octanol/water partition coefficient (logD) [1]: 2.16

Molecule: O=C1OC2(c3ccc(O)cc3Oc3cc(O)ccc32)c2ccccc21 [sodium fluorescein]
- Papp A→B at 1 μM [3]: 0.0367 ×10⁻⁶ cm/s
- Papp A→B at 1 μM [4]: 0.085 ×10⁻⁶ cm/s
- reported sodium fluorescein Pe (hCMEC/D3 line): 56.7 ×10⁻⁶ cm/s
- reported sodium fluorescein Pe (primary human BMECs): 53.3 ×10⁻⁶ cm/s

Molecule: COc1cc2c(c(OC)c1OC)-c1ccc(OC)c(=O)cc1[C@@H](NC(C)=O)CC2 [Colchicine]
- Pe value (IMR90-4-derived BMECs; [10]): 1.53 ×10⁻⁶ cm/s
- Average Pe (IMR90-4-derived BMECs; [11]): 0.09 ± 0.1 10^−3 cm/min
- Octanol/water partition coefficient (logD) [1]: 1.03

Molecule: CN1C(=O)CN=C(c2ccccc2)c2cc(Cl)ccc21 [Diazepam]
- Pe value (IMR90-4-derived BMECs; [10]): 18.5 ×10⁻⁶ cm/s
- Average Pe (IMR90-4-derived BMECs; [11]): 1.11 ± 0.45 10^−3 cm/min

Molecule: Rhodamine 123
- Transporter recognition [2, 9]: MDR1

Molecule: COc1ccc2c3c([nH]c2c1)[C@H](CC(C)C)N1C(=O)[C@H](CCC(=O)OC(C)(C)C)NC(=O)[C@@H]1C3 [Ko143]
- Transporter recognition ([2]; efflux transporter inhibitors (Table 6)): BCRP
- transport of doxorubicin from the apical to basolateral chamber in the presence of inhibitor [5]: 1.3 fold
- accumulation of doxorubicin in the presence of inhibitor [6]: increased

Molecule: Oc1nc(-c2ccc(C(F)(F)F)cc2)nc2c1CSCC2 [XAV-939]
- expression of LEF1, FST, STRA6, FZD6, SLC2A1 and ABCB1 by quantitative RT-PCR (Wnt/β-catenin pathway): statistically significant downregulation
- Mean per cell expression of GLUT-1 ([7]; IMR90-4, 6D UM 2D EC, 10 μM XAV-939, DMSO control 285): 272 A.U.
- % GLUT-1^+/PECAM-1^+ ([7]; IMR90-4, 6D UM 2D EC, 10 μM XAV-939 from day 2 of UM, DMSO control 64%): 46%
- % PECAM-1^+ overall ([7]; IMR90-4, 6D UM 2D EC, 10 μM XAV-939 from day 2 of UM, DMSO control 68%): 61%
- net reduction in the overall number of PECAM-1^+/GLUT-1^+ BMECs ([7]; IMR90-4, XAV-939 versus DMSO control): 20%
- claudin-5 or occludin localization ([8]; XAV-939 treatment): did not alter
- amounts of claudin-5 and occludin by western blots ([8]; regardless of XAV-939 treatment): equal amounts

Molecule: Inulin
- Average Pe (IMR90-4-derived BMECs; [11]): 0.029 ± 0.015 10^−3 cm/min
- Transporter recognition ([2]; compounds of the permeability screen (Table 5)): None
- Octanol/water partition coefficient (logD) [1]: −0.25

Molecule: OC[C@H]1O[C@@](CO)(O[C@H]2O[C@H](CO)[C@@H](O)[C@H](O)[C@H]2O)[C@@H](O)[C@@H]1O [Sucrose]
- Octanol/water partition coefficient (logD) [1]: −3.3

B1: SFRP2: mouse secreted protein that binds to soluble Wnts and prevents upstream activation of the Wnt pathway (protein, UniProt P97299 25-295, looked up)
Secreted frizzled-related …: LFLFGQPDFSYKRSNCKPIPANLQLCHGIEYQNMRLPNLLGHETMKEVLEQAGAWIPLVMKQCHPDTKKFLCSLFAPVCLDDLDETIQPCHSLCVQVKDRCAPVMSAFGFPWPDMLECDRFPQDNDLCIPLASSDHLLPATEEAPKVCEACKTKNEDDNDIMETLCKNDFALKIKVKEITYINRDTKIILETKSKTIYKLNGVSERDLKKSVLWLKDSLQCTCEEMNDINAPYLVMGQKQGGELVITSVKRWQKGQREFKRISRSIRKLQC
- expression of LEF1, FST, STRA6, FZD6, SLC2A1 and ABCB1 by quantitative RT-PCR (Wnt/β-catenin pathway): statistically significant downregulation

From US9902940B2, “Human blood-brain barrier endothelial cells derived from pluripotent stem cells and blood-brain barrier model thereof” (Wisconsin Alumni Research Foundation, priority 2010, dated 2018)
